# Data as given in patent publication US20100099741A1, “Molecular Targets for Treatment of Learning and Memory Dysfunction” (priority 2008, published 2010).
# How the values were obtained:
# CREB [1] = test: Western blot of CREB activity (Ser133 phosphorylation) in primary neurons after neurotransmitter ligands, forskolin or H-89; type: cell-based, rat
# Excerpt: With the primary neuronal cultures, we tested the ability of the constructed Boolean network to correctly predict the output activity, following an increase in the concentration of each input molecules. According to the logic equations of the CREB network (1), which provide the on/off state of CREB in response to the on/off states of input neurotransmitters (1), serotonin is the only input activates CREB. To verify this prediction experimentally, we treated primary neurons with equal micromolar concentrations (10 μM) of serotonin, glutamate, dopamine, GABA, and adenosine for 15 minutes and measured the activity of CREB by monitoring Ser133 phosphorylation (14). Receptors of these neurotransmitters are expressed in the primary cortical culture and this concentration is used in the literature to activate these receptors (17-22).
# We also tried to verify the biological relevance of the stuck-at-1 and stuck-at-0 fault models used in Abdi et al (1). We tested the effect of serotonin on the activity of CREB when PKA, a highly vulnerable molecule in this network, is either activated (stuck-at-1) or inhibited (stuck-at-0), by forskolin or H-89, respectively. When PKA is stuck-at-1 or 0, the model predicts that serotonin should no longer activate CREB (1). To verify this experimentally, we treated primary neurons with serotonin in the presence or absence of either forskolin or H-89 (FIG. 1E). […] Thus, when the highly vulnerable molecule PKA is stuck-at-1, the network output is not correctly regulated by the input. […] Immunofluorescent analysis of CREB phosphorylation in primary neuron cultures exposed to vehicle, forskolin, or serotonin individually, or to serotonin following treatment with forskolin, was consistent with the results obtained by Western blotting for CREB phosphorylation. The cells were triple labeled with antibodies against Ser133 CREB (as a measure of CREB activity), Map-2 (as a marker that specifically labels neurons), and DRAQ-5 (as a nuclear marker that stains the nucleus of neuronal and normeuronal cells in primary culture). […] Consistent with the Western blot data (FIG. 1E), the effect of serotonin on the activity of CREB in neurons is attenuated, when serotonin was added after treatment with forskolin. […]
# Protein extraction, and immunoblot analysis. […] Protein concentration was measured by Bio-Rad's protein assay and spectrometry at 595° A. Equal amounts of total protein were loaded on 4-12% gradient Bis-Tris gels, separated using the NuPAGE system (Invitrogen) and transferred onto nitrocellulose membrane. The membrane was probed with primary and secondary antibodies and signals were detected by chemiluminescence followed by autoradiography. […]
# CREB [2] = test: Immunofluorescent analysis of CREB phosphorylation (Ser133) in primary cortical culture; type: cell-based, rat
# Excerpt: FIG. 6. Immunofluorescent analysis of primary cortical culture following treatment with vehicle, forskolin, serotonin, or serotonin and forskolin. Red represents the phosphorylated CREB (Ser^133) as a measure of CREB activity. Green represents the Map-2 staining as a specific neuronal marker and blue represent DRAQ-5 nuclear staining of all the cells in the primary culture (both neuronal and glial cells). Images were captured with the same confocal parameters for the four different treatment conditions.
# We also tried to verify the biological relevance of the stuck-at-1 and stuck-at-0 fault models used in Abdi et al (1). We tested the effect of serotonin on the activity of CREB when PKA, a highly vulnerable molecule in this network, is either activated (stuck-at-1) or inhibited (stuck-at-0), by forskolin or H-89, respectively. When PKA is stuck-at-1 or 0, the model predicts that serotonin should no longer activate CREB (1). To verify this experimentally, we treated primary neurons with serotonin in the presence or absence of either forskolin or H-89 (FIG. 1E). […] Thus, when the highly vulnerable molecule PKA is stuck-at-1, the network output is not correctly regulated by the input. […]
# CREB [3] = conditions: previous studies (reference 18); cited from earlier work
# CREB [4] = test: Western blot of endogenous CREB Ser133 phosphorylation and total CREB protein in primary cortical neurons after P/Q-type calcium channel or Gαi agonist/antagonist treatment; type: cell-based, rat
# Method: We altered the activity or abundance of endogenous L AND/OR P/Q-type calcium channels and Gαi in primary cortical neurons from rats and then assayed for the changes in endogenous CREB activity or abundance (see Methods). We used primary neuronal culture as a model system because it has the most similar CREB signaling network to the in vivo signaling networks of the mammalian brain.
# Primary cortical culture. Primary cortical cultures were prepared from brains of embryonic day 17 to 18 Sprague-Dawley rats (Charles River). After trituration of cortical sections with a glass pipette, 2 to 4×10^5 neurons were plated on a coverslip (diameter: 12 mm) precoated with poly d-lysine (BD Biocoat). For biochemical analysis, primary cortical cells were plated in 35 mm dishes precoated with poly d-lysine (˜3×10^6 neurons/dish). Neurons were grown in NEUROBASAL Medium supplemented with 0.5 mM L-glutamine, B27 (2%), and N2 (1%) supplements.
# Protein extraction, and immunoblot analysis. Primary neurons were cultured as described. Cells were homogenized in ice cold lysate buffer (0.25 M Tris, pH 7.5) containing protease inhibitors (Protease Inhibitor Cocktail tablets, Boehringer Mannheim) and phosphatase inhibitors (Phosphatase Inhibitor Cocktails I & II, Sigma) and lysed through three cycles of freezing (in liquid nitrogen) and thawing (in 37° C. water bath). Protein concentration was measured by Bio-Rad's protein assay and spectrometry at 595° A. Equal amounts of total protein were loaded on 4-12% gradient Bis-Tris gels, separated using the NuPAGE system (Invitrogen) and transferred onto nitrocellulose membrane. The membrane was probed with primary and secondary antibodies and signals were detected by chemiluminescence followed by autoradiography. The following antibodies were used: anti-CREB antibody (Cell Signaling, 1:1000), anti-phospho Ser^133 CREB antibody (Cell Signaling, 1:1000), anti P/Q type calcium channel antibody (Chemicon, 1:1000), and anti-actin antibody (Sigma, 1:1000).
# Analysis of CREB regulation by P/Q-type calcium channels or Gαi. Primary cortical neurons were cultured as described. We followed the methods of Dolmetsch et al. (13) to analyze the effect of calcium channel blockers on CREB activity. We characterized the signaling properties of the endogenous P/Q-type calcium channels by monitoring the endogenous activity and total protein levels of CREB. In order to minimize the effect of other elements of calcium or G protein signaling following neuronal depolarization, all experiments were performed without depolarizing the neurons. Previous time-course studies have shown that short-term Ser^133 phosphorylation of CREB are transient events and prolonged Ser^133 phoaphorylation (more than 40 minutes) is required for transcriptional activity (13, 14, 15). Therefore, in these experiments we analyzed the endogenous Ser^133 phosphorylation and total CREB protein abundance following at least 2 hours treatment with agonist or antagonists of P/Q-type calcium channels and 2 hours treatment with agonist or antagonist of Gαi, ω-Agatoxin IVA (Calbiochem), pertussis toxin (Sigma), and Mas-7 (Calbiochem) were dissolved in the appropriate vehicle and added to the medium. Following the treatment, cortical neurons were harvested, lysed, and subjected to Western blot analysis as described.
# [5] = 2 hours treatment, pertussis toxin approximately 0.1 or 0.2 μg/ml, MAS-7 approximately 5 or 10 μM
# [6] = long-term (12 h) treatment, approximately 1 μM, vs vehicle
# [7] = short-term (2.5 h) treatment, approximately 1 μM, vs vehicle
molecule,measurement,setting,value
O=S(=O)(NCCNC/C=C/c1ccc(Br)cc1)c1cccc2cnccc12 [H-89],serotonin-stimulated activity of CREB under inhibition of PKA,CREB [1]; about 10 μM H-89 30 minutes followed by 15 minutes about 10 μM serotonin,prevents serotonin from stimulating the activity of CREB
NCCc1c[nH]c2ccc(O)cc12 [serotonin],activity of CREB (Ser133 phosphorylation),"CREB [1]; 10 μM for 15 minutes, primary neurons, vs vehicle",most robust effect
same,"activity of CREB on serotonin treatment following activation of PKA by forskolin, compared to serotonin only",CREB [1]; about 10 μM forskolin 30 minutes followed by 15 minutes about 10 μM serotonin,did not affect the activity of CREB
same,"activity of CREB, individual treatments","CREB [1]; about 10 μM, forskolin 30 minutes, serotonin 15 minutes, primary neurons",activate CREB
same,activity of CREB (phospho-Ser133 staining) in neuronal and non-neuronal cells,"CREB [2]; primary cortical culture, triple labeled with phospho-CREB, Map-2, DRAQ-5",only increased the activity of CREB in the neurons
same,effect of serotonin on the activity of CREB in neurons when added after forskolin,CREB [2]; serotonin added after treatment with forskolin,attenuated
same,Ser133 CREB phosphorylation,CREB [3],can induce
pertussis toxin,Ser133 phosphorylation of CREB,CREB [4]; [5],increase
same,abundance of CREB,CREB [4]; [5],increase
ω-Agatoxin IVA,abundance of CREB,CREB [4]; [6],decreased
same,phosphorylation of CREB at Ser133,CREB [4]; [6],decreased
same,phosphorylation of CREB at Ser133,CREB [4]; [7],increased
same,total abundance of CREB,CREB [4]; [7],without changing
